biological target: T1, HDAC6 enzyme (Homo sapiens, UniProt Q9UBN7); experiment: HDAC6 enzyme inhibitory assay (HDAC-Glo I/II Assay kit); assay type: biochemical; settings: 1 μM test compound; read-out: HDAC6 inhibitory rate (%) (1 μM)
T1 construct: prepared by transducing full length HDAC1 and HDAC6 genes into Sf-9 insect cells; GST; purchased SignalChem; host or cells: Sf-9 insect cells
T1 sequence (Q9UBN7 1-1215): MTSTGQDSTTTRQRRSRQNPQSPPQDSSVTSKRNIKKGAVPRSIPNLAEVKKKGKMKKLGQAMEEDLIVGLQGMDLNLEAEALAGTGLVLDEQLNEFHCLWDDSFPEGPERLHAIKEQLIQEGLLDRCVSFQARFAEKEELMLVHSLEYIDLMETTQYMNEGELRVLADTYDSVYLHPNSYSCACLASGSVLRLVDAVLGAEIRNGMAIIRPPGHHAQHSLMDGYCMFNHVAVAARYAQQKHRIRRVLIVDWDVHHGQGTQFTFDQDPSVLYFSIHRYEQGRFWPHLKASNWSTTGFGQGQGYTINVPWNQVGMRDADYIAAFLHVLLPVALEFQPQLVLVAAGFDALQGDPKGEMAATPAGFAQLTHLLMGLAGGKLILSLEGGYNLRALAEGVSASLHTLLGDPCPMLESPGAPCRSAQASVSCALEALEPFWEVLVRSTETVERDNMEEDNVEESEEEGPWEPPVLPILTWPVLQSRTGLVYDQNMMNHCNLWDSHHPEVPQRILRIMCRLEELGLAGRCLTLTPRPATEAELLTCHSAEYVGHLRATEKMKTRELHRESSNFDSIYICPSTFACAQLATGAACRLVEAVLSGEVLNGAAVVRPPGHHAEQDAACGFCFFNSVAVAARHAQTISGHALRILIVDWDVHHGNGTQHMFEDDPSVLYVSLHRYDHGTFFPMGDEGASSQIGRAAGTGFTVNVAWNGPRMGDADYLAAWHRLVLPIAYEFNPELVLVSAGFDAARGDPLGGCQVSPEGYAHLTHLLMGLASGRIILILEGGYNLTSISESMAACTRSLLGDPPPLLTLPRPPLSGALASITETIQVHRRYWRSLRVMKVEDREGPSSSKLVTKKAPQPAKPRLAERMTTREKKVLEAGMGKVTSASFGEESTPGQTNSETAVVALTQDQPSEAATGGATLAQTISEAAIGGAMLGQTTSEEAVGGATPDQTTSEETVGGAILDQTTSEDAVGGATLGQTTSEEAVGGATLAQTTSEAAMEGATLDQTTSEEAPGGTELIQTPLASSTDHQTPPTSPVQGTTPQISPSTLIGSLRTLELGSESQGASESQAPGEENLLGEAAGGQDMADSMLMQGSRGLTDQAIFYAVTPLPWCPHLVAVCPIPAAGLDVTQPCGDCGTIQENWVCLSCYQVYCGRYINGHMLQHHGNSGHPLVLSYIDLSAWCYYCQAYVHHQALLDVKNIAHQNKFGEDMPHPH
Method: HDAC1 enzyme and HDAC6 enzyme each prepared by transducing full length HDAC1 and HDAC6 genes into Sf-9 insect cells and purifying by GST affinity column were purchased from SignalChem. Using these enzymes, HDAC1 and/or HDAC6 enzyme inhibitory activities of the compound of the present invention were evaluated. Enzymes were used after preserved at −70° C. HDAC1 or HDAC6 enzyme inhibitory activity of the compound of the present invention was measured using HDAC-Glo™ I/II Assay kit (Promega) according to the following experimental method. The test compound diluted with assay buffer (24 mM Tris-HCl (pH 7.5), 1 mM MgCl2, 0.35 mM KCl, 135 mM NaCl, 0.6 mM Glutathione, 0.01% Tween-20) was added to a 384-well plate by each 2 μL. Then, HDAC1 or HDAC6 enzyme solution diluted with assay buffer was added thereto by each 4 μL, and the plate was incubated at room temperature for 60 min. After incubated, HDAC substrate-Developer solution prepared according to Promega protocol attached to the assay kit was added to the 384-well plate by each 2 μL, and the enzyme reaction was started. After reacting at room temperature for 20 min, luminescence level was measured using plate reader Envision (PerkinElmer). The inhibitory activity of each compound was calculated as a relative activity value when luminescence level in wells without enzyme is considered as 100% inhibition.

Structure (SMILES) | inhibition at 1 µM
O=C(NCC1COCCN1C(=O)c1cccnc1)c1ccc(-c2noc(C(F)(F)F)n2)s1 (stereo not shown) [Example 225, N-((4-(pyridin-3-ylcarbonyl)morpholin-3-yl)methyl)-5-(5-(trifluoromethyl)-1,2,4-oxadiazol-3-yl)thiophene-2-carboxamide] | 92%
N#Cc1ccccc1C(=O)N1CCOCC1CNC(=O)c1ccc(-c2noc(C(F)(F)F)n2)s1 (stereo not shown) [Example 217, N-((4-(2-cyanobenzoyl)morpholin-3-yl)methyl)-5-(5-(trifluoromethyl)-1,2,4-oxadiazol-3-yl)thiophene-2-carboxamide] | 94%
O=C(NCC1COCCN1C(=O)c1ccno1)c1ccc(-c2noc(C(F)(F)F)n2)s1 (stereo not shown) [Example 239, N-((4-(1,2-oxazol-5-ylcarbonyl)morpholin-3-yl)methyl)-5-(5-(trifluoromethyl)-1,2,4-oxadiazol-3-yl)thiophene-2-carboxamide] | 97%
O=C(NC[C@H]1COCCN1C(=O)c1cc2ccccc2o1)c1ccc(-c2noc(C(F)(F)F)n2)cn1 [Example 200, N-(((3S)-4-(1-benzofuran-2-ylcarbonyl)morpholin-3-yl)methyl)-5-(5-(trifluoromethyl)-1,2,4-oxadiazol-3-yl)pyridine-2-carboxamide] | 91%
Cc1csc(C(=O)N2CCOCC2CNC(=O)c2ccc(-c3noc(C(F)(F)F)n3)s2)c1 (stereo not shown) [Example 243, N-((4-((4-methyl-2-thienyl)carbonyl)morpholin-3-yl)methyl)-5-(5-(trifluoromethyl)-1,2,4-oxadiazol-3-yl)thiophene-2-carboxamide] | 93%
N#Cc1ccc(C(=O)N2CCOC[C@@H]2CNC(=O)c2ccc(-c3noc(C(F)(F)F)n3)cn2)cc1 [Example 190, N-(((3S)-4-(4-cyanobenzoyl)morpholin-3-yl)methyl)-5-(5-(trifluoromethyl)-1,2,4-oxadiazol-3-yl)pyridine-2-carboxamide] | 95%
N#Cc1cccc(C(=O)N2CCOC[C@@H]2CNC(=O)c2ccc(-c3noc(C(F)(F)F)n3)cn2)c1 [Example 188, N-(((3S)-4-(3-cyanobenzoyl)morpholin-3-yl)methyl)-5-(5-(trifluoromethyl)-1,2,4-oxadiazol-3-yl)pyridine-2-carboxamide] | 95%
O=C(NC[C@H]1COCCN1C(=O)c1cc(F)cc(F)c1)c1ccc(-c2noc(C(F)(F)F)n2)cn1 [Example 186, N-(((3S)-4-(3,5-difluorobenzoyl)morpholin-3-yl)methyl)-5-(5-(trifluoromethyl)-1,2,4-oxadiazol-3-yl)pyridine-2-carboxamide] | 99%
O=C(NC[C@@H]1COCCN1C(=O)c1cc2ncccn2n1)c1ccc(-c2noc(C(F)(F)F)n2)cc1 [Example 126, N-(((3R)-4-(pyrazolo[1,5-a]pyrimidin-2-ylcarbonyl)morpholin-3-yl)methyl)-4-(5-(trifluoromethyl)-1,2,4-oxadiazol-3-yl)benzamide] | 88%
N#Cc1ccccc1C(=O)N1CCOCC1CNC(=O)c1ccc(-c2noc(C(F)(F)F)n2)cc1 (stereo in doubt) [Example 115, N-(((3R)-4-(2-cyanobenzoyl)morpholin-3-yl)methyl)-4-(5-(trifluoromethyl)-1,2,4-oxadiazol-3-yl)benzamide] | 94%
O=C(NC[C@H]1COCCN1C(=O)c1ccncc1)c1ccc(-c2noc(C(F)(F)F)n2)cn1 [Example 191, N-(((3S)-4-isonicotinoylmorpholin-3-yl)methyl)-5-(5-(trifluoromethyl)-1,2,4-oxadiazol-3-yl)pyridine-2-carboxamide] | 96%
N#Cc1ccccc1C(=O)N1CCOC[C@@H]1CNC(=O)c1ccc(-c2noc(C(F)(F)F)n2)cn1 [Example 187, N-(((3S)-4-(2-cyanobenzoyl)morpholin-3-yl)methyl)-5-(5-(trifluoromethyl)-1,2,4-oxadiazol-3-yl)pyridine-2-carboxamide] | 94%

Results, then the compound that gave them:

inhibition at 1 µM | Structure (SMILES)
94% | Cn1nccc1C(=O)N1CCOC[C@@H]1CNC(=O)c1ccc(-c2noc(C(F)(F)F)n2)cn1 [Example 192, N-(((3S)-4-((1-methyl-1H-pyrazol-5-yl)carbonyl)morpholin-3-yl)methyl)-5-(5-(trifluoromethyl)-1,2,4-oxadiazol-3-yl)pyridine-2-carboxamide]
95% | O=C(NC[C@H]1COCCN1C(=O)CCc1ccccc1)c1ccc(-c2noc(C(F)(F)F)n2)cn1 [Example 203, N-(((3S)-4-(3-phenylpropanoyl)morpholin-3-yl)methyl)-5-(5-(trifluoromethyl)-1,2,4-oxadiazol-3-yl)pyridine-2-carboxamide]
93% | Cc1cc(C(=O)N2CCOC[C@@H]2CNC(=O)c2ccc(-c3noc(C(F)(F)F)n3)cc2)on1 [Example 62, N-(((3S)-4-((3-methyl-1,2-oxazol-5-yl)carbonyl)morpholin-3-yl)methyl)-4-(5-(trifluoromethyl)-1,2,4-oxadiazol-3-yl)benzamide]
90% | N#CC1(C(=O)N2CCOC[C@H]2CNC(=O)c2ccc(-c3noc(C(F)(F)F)n3)cc2)CC1 [Example 127, N-(((3R)-4-((1-cyanocyclopropyl)carbonyl)morpholin-3-yl)methyl)-4-(5-(trifluoromethyl)-1,2,4-oxadiazol-3-yl)benzamide]
89% | Cc1ccc(C(=O)N2CCOC[C@@H]2CNC(=O)c2ccc(-c3noc(C(F)(F)F)n3)cc2)s1 [Example 72, N-(((3S)-4-((5-methyl-2-thienyl)carbonyl)morpholin-3-yl)methyl)-4-(5-(trifluoromethyl)-1,2,4-oxadiazol-3-yl)benzamide]
82% | O=C(NCC1Cc2ccccc2CN1C(=O)c1cc(Cl)cc(Cl)c1)c1ccc(-c2noc(C(F)(F)F)n2)cc1 (stereo not shown) [Example 176, N-((2-(3,5-dichlorobenzoyl)-1,2,3,4-tetrahydroisoquinolin-3-yl)methyl)-4-(5-(trifluoromethyl)-1,2,4-oxadiazol-3-yl)benzamide]
92% | O=C(NC[C@H]1COCCN1C(=O)C1CC1)c1ccc(-c2noc(C(F)(F)F)n2)cc1 [Example 75, N-(((3S)-4-(cyclopropylcarbonyl)morpholin-3-yl)methyl)-4-(5-(trifluoromethyl)-1,2,4-oxadiazol-3-yl)benzamide]
97% | O=C(NC[C@H]1COCCN1C(=O)c1cccs1)c1ccc(-c2noc(C(F)(F)F)n2)cn1 [Example 197, N-(((3S)-4-(2-thienylcarbonyl)morpholin-3-yl)methyl)-5-(5-(trifluoromethyl)-1,2,4-oxadiazol-3-yl)pyridine-2-carboxamide]
95% | O=C(NC[C@H]1COCCN1C(=O)Cc1cccs1)c1ccc(-c2noc(C(F)(F)F)n2)cn1 [Example 201, N-(((3S)-4-(2-thienylacetyl)morpholin-3-yl)methyl)-5-(5-(trifluoromethyl)-1,2,4-oxadiazol-3-yl)pyridine-2-carboxamide]
94% | O=C(NCC1COCCN1C(=O)c1cccs1)c1ccc(-c2noc(C(F)(F)F)n2)s1 (stereo not shown) [Example 241, N-((4-(2-thienylcarbonyl)morpholin-3-yl)methyl)-5-(5-(trifluoromethyl)-1,2,4-oxadiazol-3-yl)thiophene-2-carboxamide]
